From ChEMBL document CHEMBL3507680, “University of Dundee, Gates Library screen for HepG2 cell viability”

Test: Human HepG2 cell viability assay in 384 well format
Format: toxicity, cell-based
Parameters: dose 125 nL, time 70.5 hour; cytotoxicity at 70.5 h: concentration not given beside the values
Details: HepG2 cells, read-out: Inhibition

Compared with `CCCc1nc(C(C)(C)NC(=O)C2CC(=O)N(CC)C2)no1` (configuration not stated), `Cc1ccnc(CNC(=O)C2CC(=O)N(CCN(C)C)C2)c1` (configuration not stated) is higher in cytotoxicity at 70.5 h: -13% for the first, -7.06% for the second.

Going from `CCNC(=O)[C@@H]1C[C@@H](NC(=O)c2ccc(C)cc2O)CN1CCCSC` to `Cc1ccc(CNC(=O)C2CCNC(=O)C2)c(OCCC(C)C)c1` (configuration not stated), the cytotoxicity at 70.5 h rises from -3.38% to 0.635%.

Compared with `CC(C)N(Cc1ccccc1)C(=O)NCCNC(=O)c1cccnc1`, `N#CCCN(Cc1ccccn1)C(=O)Nc1cccnc1` is higher in cytotoxicity at 70.5 h: -13.6% for the first, -7.42% for the second.

First: Cc1nnc2n1CCN(Cc1csc(Cc3ccccc3)n1)C2
Second: CCc1nc(C2CCCN2Cc2nc(Cc3ccccc3)no2)no1 (configuration not stated)
The cytotoxicity at 70.5 h of the first is lower: -34.1% for the first, -0.88% for the second.

First: CN(C)C(=O)C1(CCCc2ccncc2)CCCN1 (configuration not stated)
Second: CC(=O)N(Cc1ncc(C)o1)C1CCN(Cc2cccnc2)C1 (configuration not stated)
The cytotoxicity at 70.5 h of the first is higher: 9.48% for the first, 2.44% for the second.

Compared with `CCn1cc(NC(=O)c2cccc(CN3C[C@@H](C)O[C@@H](C)C3)c2)nn1`, `CCn1cnnc1CNC(=O)N1CCC(Cc2cccnc2)CC1` is higher in cytotoxicity at 70.5 h: 4.2% for the first, 34.8% for the second.

Compared with `Cc1cnn(CCNCc2nnc(-c3ccccc3)o2)c1`, `Cc1cc(NCc2ccccc2)nc2[nH]nc(N)c12` is lower in cytotoxicity at 70.5 h: -1.2% for the first, -12.7% for the second.

Compared with `Cc1ncsc1C(=O)NCCn1nc2ccccn2c1=O`, `Cn1cc(C(=O)NCc2cncc3c2CCN(c2ccccn2)C3)cn1` is higher in cytotoxicity at 70.5 h: -13.7% for the first, 17.4% for the second.

First: O=C(c1cccnc1)N1CCc2c(nc(N3CCCC3)[nH]c2=O)C1
Second: Cc1nsc(N2CCCN(C(=O)c3ccc4[nH]ccc4c3)CC2)n1
The cytotoxicity at 70.5 h of the first is lower: -4.95% for the first, -3.86% for the second.

Going from `O=C1C[C@@H]2CCN(Cc3ccccc3)C[C@@H]2CCN1c1ccccc1` to `Oc1cc(-c2ccsc2)nc(C2CCN(Cc3ccncc3)CC2)n1`, the cytotoxicity at 70.5 h falls from 6.43% to -3.71%.

Compared with `COCC1CN(c2ccncn2)Cc2cnn(CC3CCCC3)c21` (configuration not stated), `Cc1cc(C)c2c(NCc3nncn3C3CCCCC3)ncnc2n1` is lower in cytotoxicity at 70.5 h: -11.3% for the first, -13.6% for the second.

Compared with `CO[C@H]1C[C@@H]2CN(C(=O)Cc3ccc(C)s3)C[C@@H]2C1`, `COc1ccc(C(=O)N2CCCC(n3nc(C)nc3C)C2)c(OC)c1` (configuration not stated) is higher in cytotoxicity at 70.5 h: -2.91% for the first, 21.8% for the second.

Compared with `NCCc1nc(N(Cc2nccs2)C2CC2)c2ccccc2n1`, `Cc1noc(C)c1CN(Cc1ccccc1)C(C)CN1CCOCC1` (configuration not stated) is lower in cytotoxicity at 70.5 h: 37.2% for the first, -9.44% for the second.

Compared with `COC(=O)C(C)(C)NC(=O)c1cnc(Cc2ccc(F)cc2)s1`, `Cc1cc2[nH]c(O)nc2cc1NCc1ccc(F)cc1` is lower in cytotoxicity at 70.5 h: -2.02% for the first, -10.2% for the second.

Going from `CC(=O)NC1CCN(C(=O)Nc2ccc(SC(F)F)cc2)CC1` to `Cn1cc(C(=O)NC2CCN(C(=O)NCC3CCSCC3)CC2)cn1`, the cytotoxicity at 70.5 h rises from -4.73% to -3.27%.

Compared with `Cc1nc(C)n(CC2CN(CCCOc3ccccc3C)CCO2)n1` (configuration not stated), `CCOc1ccccc1OCC(=O)NCc1ncc(C)c(OC)c1C` is lower in cytotoxicity at 70.5 h: 11.3% for the first, -10.2% for the second.

First: CC1CN(CC(=O)NC(C2CC2)C2CC2)CCN1Cc1nccn1C (configuration not stated)
Second: O=C(C1CC1)N1CCCCCC1C1CCN(c2ncccn2)CC1 (configuration not stated)
The cytotoxicity at 70.5 h of the first is higher: -3.28% for the first, -9.64% for the second.

Compared with `O=S(=O)(Cc1ccccc1)NCc1ccnc(O)c1`, `COc1ccc(S(=O)(=O)N2CC(CC(=O)O)c3ccccc32)cc1` (configuration not stated) is lower in cytotoxicity at 70.5 h: 0.635% for the first, -0.927% for the second.

Going from `CN(Cc1noc2c1CCCC2)C(=O)Nc1cncc(F)c1` to `CCOC(=O)c1ccc(NC(=O)c2cc3c([nH]c2=O)CCCC3)cc1`, the cytotoxicity at 70.5 h falls from -7.85% to -14.4%.

Compared with `CCS(=O)(=O)N1CCC2(CN(c3cc(OC)ncn3)C2)C1`, `COc1ncnc2c1CCN(c1cc(C(F)(F)F)ncn1)CC2` is lower in cytotoxicity at 70.5 h: 12.1% for the first, -6.15% for the second.

Compared with `Cc1nn(C)cc1-c1cc(C(F)(F)F)nc(NC2CCN(C)CC2)n1`, `Cc1noc(C)c1CCN1CCCC1c1nc2cc(F)ccc2[nH]1` (configuration not stated) is lower in cytotoxicity at 70.5 h: -4.19% for the first, -5.52% for the second.

First: Cc1csc(C2CCCCN2C(=O)c2cn[nH]c2C)n1 (configuration not stated)
Second: Cc1ncoc1C(=O)N1CCc2[nH]nc(-c3ccc4c(c3)OCO4)c2C1
The cytotoxicity at 70.5 h of the first is lower: 16.7% for the first, 16.8% for the second.

First: CCOc1cc(C(=O)N2CCN(C)CC2)cc2occc12
Second: CC(=O)N1CCN(Cc2ccsc2)CC2(CC(=O)N(C)C2)C1 (configuration not stated)
The cytotoxicity at 70.5 h of the first is higher: 3.95% for the first, -12.2% for the second.

Compared with `COc1cc(OC)c(CNC(=O)NCc2ccc(C#N)cc2)c(OC)c1`, `COc1cccc(CN(C)C(=O)CCC(=O)c2ccccc2)c1OC` is lower in cytotoxicity at 70.5 h: 3.35% for the first, -9.57% for the second.

First: O=S(=O)(N1CCCCCC1)N1CCN(Cc2ccc(F)cc2Br)CC1
Second: c1c(CN2CCCCC2)nc2n1CCN(CC1CC1)C2
The cytotoxicity at 70.5 h of the first is lower: -4.85% for the first, 0.696% for the second.

First: Cn1c(C(=O)NC(Cc2ccsc2)c2cccnc2)cc(=O)n(C)c1=O (configuration not stated)
Second: Cc1cc(NC(=O)Cc2ccc3c(c2)OCO3)n(C)n1
The cytotoxicity at 70.5 h of the first is lower: -0.464% for the first, -0.417% for the second.

Going from `CC(C)N(C)CC(=O)NCCc1nc(C(F)(F)F)cs1` to `CCn1ccnc1CN(C)CC1CCCN1c1cccnn1` (configuration not stated), the cytotoxicity at 70.5 h rises from -5.26% to 10%.

Going from `CC1(C(=O)N2CCOCC2)CN(Cc2ncc[nH]2)CCO1` (configuration not stated) to `CCC(=O)N1CCN(CCn2cccn2)c2ncccc2C1`, the cytotoxicity at 70.5 h rises from 11.7% to 12.9%.

Work on `CCC(CO)NCc1ccc(-c2ccc(Br)cc2)o1` (configuration not stated) yielded a cytotoxicity at 70.5 h of 0.103%.
